Reference: article PMC10726367 (Journal of Medicinal Chemistry, 2023)

Tests used:
[1] = Membrane permeability, PermeaPad Plate (cell-free transport model); assay type: in vitro ADME; conditions: for Pe: 24 h, room temperature; for Pe class (low/medium/high; poor): class word printed beside Pe, no key given
Procedure: Membrane permeability was assessed using PermeaPad Plate according to the manufacturing procedure (innoME GmbH, Espelkamp, Germany). Briefly, 200 μL of water was added into the acceptor plate. 200 μL of 100–500 μM test compound in water was added directly to the well membranes of the donor plate. The donor plate contains a biomimetic membrane for simulating passive mass transfer through different barriers in the body. Then, the donor plate was placed into the acceptor plate wells and incubated at room temperature for 24 h in the dark. To determine the peak absorbance of test compounds, absorbance spectra of acceptor solutions and initial solutions for each test compound were read out. The permeability rate (Pe) was calculated using the formula:
[drawing 1] , where ODA is the absorbance of acceptor solution and ODE is the absorbance of the standard solution; if the compound is able to permeabilize the membrane and fully reach equilibrium, 250 μM will be the final concentration of solution in the donor and acceptor wells. The coefficient C was calculated using the formula:
[drawing 2] , where VA is the acceptor volume (cm^3), VD is the donor volume (cm^3), the membrane area is 0.24 cm^2, and the time is 86,400 s.

RyR2 = target: T1, RyR2 (Mus musculus, UniProt E9Q401); experiment: Time-lapse [Ca2+]ER assay (RyR2 R-CEPIA1er assay) in HEK-293 cells with inducible WT RyR2; assay type: cell-based; conditions: for RyR2 effect class: 25 μM (S107 1 mM per Figure 2); for RyR2 effect class / EC50: HEK-293 RyR2 R-CEPIA1er cells; for EC50: value, interval; for effect on [Ca2+]ER / R-CEPIA1er fluorescence (F/F0): 25 μM, vs 0.1 v/v% DMSO
T1 construct: expressed in transfected cells; host or cells: HEK-293 cells stably expressing R-CEPIA1er with doxycycline-inducible WT RyR2
T1 sequence (E9Q401 whole entry): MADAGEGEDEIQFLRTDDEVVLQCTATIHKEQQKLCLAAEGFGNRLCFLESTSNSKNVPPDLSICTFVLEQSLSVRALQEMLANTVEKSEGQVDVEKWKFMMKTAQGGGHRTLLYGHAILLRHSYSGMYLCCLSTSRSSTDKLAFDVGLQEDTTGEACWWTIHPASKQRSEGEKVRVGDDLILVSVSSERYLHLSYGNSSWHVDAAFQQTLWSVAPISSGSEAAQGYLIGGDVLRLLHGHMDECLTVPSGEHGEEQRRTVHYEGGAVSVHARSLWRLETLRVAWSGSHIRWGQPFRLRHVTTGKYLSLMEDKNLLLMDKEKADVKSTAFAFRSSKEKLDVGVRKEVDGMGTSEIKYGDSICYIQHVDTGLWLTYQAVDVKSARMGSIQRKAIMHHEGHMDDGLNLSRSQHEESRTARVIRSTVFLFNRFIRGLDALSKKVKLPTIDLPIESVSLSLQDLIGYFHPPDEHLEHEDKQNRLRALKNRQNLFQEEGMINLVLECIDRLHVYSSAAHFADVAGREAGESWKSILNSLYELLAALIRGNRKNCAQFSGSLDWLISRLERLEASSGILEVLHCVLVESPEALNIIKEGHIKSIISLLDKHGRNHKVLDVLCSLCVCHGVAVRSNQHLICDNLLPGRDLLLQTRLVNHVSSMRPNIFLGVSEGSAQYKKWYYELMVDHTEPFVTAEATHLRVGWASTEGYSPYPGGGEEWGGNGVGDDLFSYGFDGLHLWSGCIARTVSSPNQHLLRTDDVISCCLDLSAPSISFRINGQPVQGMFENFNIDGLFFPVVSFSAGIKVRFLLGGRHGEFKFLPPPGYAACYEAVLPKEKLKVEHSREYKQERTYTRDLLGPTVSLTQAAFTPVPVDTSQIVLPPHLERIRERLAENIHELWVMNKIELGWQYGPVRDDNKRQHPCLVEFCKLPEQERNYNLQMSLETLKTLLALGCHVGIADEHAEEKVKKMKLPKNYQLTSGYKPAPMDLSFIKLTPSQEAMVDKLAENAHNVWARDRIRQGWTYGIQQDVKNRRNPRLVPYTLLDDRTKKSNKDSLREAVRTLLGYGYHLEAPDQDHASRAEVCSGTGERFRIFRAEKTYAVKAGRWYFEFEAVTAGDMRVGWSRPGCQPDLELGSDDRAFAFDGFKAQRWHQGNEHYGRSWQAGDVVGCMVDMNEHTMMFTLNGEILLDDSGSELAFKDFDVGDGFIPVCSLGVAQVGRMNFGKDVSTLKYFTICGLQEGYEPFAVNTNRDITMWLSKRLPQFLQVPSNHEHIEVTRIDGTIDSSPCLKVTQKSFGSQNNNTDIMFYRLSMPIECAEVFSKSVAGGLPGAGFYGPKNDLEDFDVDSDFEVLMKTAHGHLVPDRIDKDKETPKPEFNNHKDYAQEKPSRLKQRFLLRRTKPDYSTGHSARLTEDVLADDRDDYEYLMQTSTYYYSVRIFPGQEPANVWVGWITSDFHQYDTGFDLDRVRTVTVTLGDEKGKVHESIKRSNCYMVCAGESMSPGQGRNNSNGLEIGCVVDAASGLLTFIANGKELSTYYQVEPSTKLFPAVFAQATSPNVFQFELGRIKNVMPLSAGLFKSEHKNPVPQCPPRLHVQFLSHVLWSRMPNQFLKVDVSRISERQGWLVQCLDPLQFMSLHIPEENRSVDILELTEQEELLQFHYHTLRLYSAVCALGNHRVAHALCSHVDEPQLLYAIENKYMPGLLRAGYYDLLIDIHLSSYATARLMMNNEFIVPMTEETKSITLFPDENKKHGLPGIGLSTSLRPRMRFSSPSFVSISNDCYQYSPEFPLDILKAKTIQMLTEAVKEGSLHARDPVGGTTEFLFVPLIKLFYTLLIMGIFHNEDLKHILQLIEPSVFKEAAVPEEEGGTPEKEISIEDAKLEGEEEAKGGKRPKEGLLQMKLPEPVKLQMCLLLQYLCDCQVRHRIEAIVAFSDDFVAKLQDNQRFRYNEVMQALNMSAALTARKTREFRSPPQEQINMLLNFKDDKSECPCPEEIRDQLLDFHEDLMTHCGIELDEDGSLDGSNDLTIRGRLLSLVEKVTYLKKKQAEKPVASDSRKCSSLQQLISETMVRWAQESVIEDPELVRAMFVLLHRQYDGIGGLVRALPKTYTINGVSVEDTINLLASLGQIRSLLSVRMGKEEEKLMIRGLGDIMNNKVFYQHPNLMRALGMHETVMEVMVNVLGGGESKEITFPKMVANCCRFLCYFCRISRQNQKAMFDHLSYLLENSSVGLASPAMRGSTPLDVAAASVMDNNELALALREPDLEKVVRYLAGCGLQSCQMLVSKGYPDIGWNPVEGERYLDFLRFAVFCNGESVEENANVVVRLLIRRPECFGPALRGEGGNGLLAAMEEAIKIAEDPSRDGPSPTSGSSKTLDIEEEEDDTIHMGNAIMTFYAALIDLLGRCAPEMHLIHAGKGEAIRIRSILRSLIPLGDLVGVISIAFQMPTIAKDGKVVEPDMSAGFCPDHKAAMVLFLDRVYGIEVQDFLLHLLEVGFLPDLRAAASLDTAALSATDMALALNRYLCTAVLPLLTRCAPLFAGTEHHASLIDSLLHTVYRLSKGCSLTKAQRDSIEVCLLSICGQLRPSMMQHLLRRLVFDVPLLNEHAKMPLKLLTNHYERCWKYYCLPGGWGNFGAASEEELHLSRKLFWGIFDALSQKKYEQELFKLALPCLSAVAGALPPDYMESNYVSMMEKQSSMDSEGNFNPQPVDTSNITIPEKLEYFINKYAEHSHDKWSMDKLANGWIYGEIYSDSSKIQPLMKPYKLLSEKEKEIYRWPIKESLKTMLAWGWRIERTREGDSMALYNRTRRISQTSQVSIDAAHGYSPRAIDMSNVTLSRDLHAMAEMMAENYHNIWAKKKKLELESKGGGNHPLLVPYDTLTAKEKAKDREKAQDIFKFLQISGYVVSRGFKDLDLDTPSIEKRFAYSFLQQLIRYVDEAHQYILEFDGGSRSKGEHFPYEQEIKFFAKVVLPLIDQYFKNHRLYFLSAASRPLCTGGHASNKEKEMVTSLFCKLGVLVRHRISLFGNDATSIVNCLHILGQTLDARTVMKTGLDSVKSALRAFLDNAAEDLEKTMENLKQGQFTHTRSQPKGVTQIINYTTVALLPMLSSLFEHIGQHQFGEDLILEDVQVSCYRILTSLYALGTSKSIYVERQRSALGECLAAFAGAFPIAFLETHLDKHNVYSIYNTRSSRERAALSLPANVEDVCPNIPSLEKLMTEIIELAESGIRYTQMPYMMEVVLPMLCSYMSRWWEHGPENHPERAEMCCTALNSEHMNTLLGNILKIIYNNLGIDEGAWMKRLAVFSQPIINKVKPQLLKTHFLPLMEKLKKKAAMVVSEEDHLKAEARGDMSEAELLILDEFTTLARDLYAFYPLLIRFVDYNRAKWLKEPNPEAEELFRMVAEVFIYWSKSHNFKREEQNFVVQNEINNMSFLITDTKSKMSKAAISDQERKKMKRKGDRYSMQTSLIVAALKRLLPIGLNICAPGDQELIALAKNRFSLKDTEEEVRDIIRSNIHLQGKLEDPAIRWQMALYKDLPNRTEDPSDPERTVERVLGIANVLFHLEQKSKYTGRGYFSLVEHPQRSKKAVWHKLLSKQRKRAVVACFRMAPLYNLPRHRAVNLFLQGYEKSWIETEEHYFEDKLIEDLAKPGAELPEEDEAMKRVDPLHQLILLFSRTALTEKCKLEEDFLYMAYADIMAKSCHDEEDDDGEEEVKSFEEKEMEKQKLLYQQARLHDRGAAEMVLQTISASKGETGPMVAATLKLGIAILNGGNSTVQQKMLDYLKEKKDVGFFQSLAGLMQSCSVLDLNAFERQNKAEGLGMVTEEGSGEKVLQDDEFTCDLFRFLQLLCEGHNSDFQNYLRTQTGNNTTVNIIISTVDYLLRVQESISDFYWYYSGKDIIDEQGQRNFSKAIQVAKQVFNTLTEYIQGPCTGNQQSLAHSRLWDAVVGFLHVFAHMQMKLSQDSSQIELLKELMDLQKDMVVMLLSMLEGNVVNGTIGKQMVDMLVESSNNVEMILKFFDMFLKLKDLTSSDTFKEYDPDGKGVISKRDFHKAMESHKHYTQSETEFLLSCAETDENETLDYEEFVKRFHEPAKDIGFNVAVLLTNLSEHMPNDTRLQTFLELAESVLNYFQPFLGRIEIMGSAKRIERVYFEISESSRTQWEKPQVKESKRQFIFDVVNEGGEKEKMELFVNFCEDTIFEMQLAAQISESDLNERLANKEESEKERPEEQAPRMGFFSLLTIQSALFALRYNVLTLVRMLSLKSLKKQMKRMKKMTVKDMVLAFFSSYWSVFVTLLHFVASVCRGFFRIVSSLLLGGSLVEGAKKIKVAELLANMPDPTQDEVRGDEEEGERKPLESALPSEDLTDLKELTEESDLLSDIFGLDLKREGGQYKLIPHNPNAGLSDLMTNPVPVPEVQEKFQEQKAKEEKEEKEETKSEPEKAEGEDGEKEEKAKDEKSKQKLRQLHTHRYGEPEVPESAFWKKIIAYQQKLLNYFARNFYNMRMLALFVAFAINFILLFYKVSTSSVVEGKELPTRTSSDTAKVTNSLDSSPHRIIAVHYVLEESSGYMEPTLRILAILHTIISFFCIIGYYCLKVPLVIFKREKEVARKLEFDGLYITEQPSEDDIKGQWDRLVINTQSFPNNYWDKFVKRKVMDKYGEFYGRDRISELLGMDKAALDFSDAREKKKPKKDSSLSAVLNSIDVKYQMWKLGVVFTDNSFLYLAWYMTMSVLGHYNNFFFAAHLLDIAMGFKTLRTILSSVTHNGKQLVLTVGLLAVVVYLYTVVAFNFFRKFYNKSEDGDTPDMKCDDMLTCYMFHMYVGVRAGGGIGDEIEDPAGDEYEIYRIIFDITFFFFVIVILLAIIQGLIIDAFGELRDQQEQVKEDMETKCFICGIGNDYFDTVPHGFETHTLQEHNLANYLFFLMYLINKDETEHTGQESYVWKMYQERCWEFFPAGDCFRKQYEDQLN
Description: To assess the functional potency of novel agents for modulating RyR2 channel activity, we measured changes in Ca^2+ levels in ER of HEK-293 cells with inducible expression of wild-type RyR2 (WT RyR2).[33],[34] Because the expression of WT RyR2 introduces an additional spontaneous Ca^2+ leak from the ER, these cells are suitable for our purpose of testing potential RyR2 stabilizers.[35] The cells additionally stably express the Ca^2+ fluorescence indicator R-CEPIA1er, which is a genetically encoded sensor protein of Ca^2+ in the ER (the cell line was a gift from T. Murayama, Department of Pharmacology, Juntendo University School of Medicine, Tokyo, Japan).[36]
The addition of these compounds, which are known to inhibit excessive cardiac RyR2 activity, should reduce Ca^2+ leak from the ER, thus increasing the R-CEPIA1er fluorescence.
The fluorescence plate reader [Ca^2+]ER assay was performed according to the slightly modified protocol of Murayama and Kurebayashi.[36] […] After the cells were inducted with doxycycline for 24 h, changes in ER calcium concentrations [Ca^2+]ER were measured on a multiwell plate reader TECAN Spark 20 M at 37 °C. The 1000 × stock solutions of the test compounds were prepared in DMSO. Briefly, the culture medium was removed and 100 μL of Tyrode’s solution containing 2 mM CaCl2 was added to the cells. The time courses were recorded in each well. Fluorescence was evoked by a 560 nm excitation wavelength and collected in a bottom-read mode at 610 nm. Data was recorded every 10 s, exposure −20 flashes, excitation bandwidth −20 nm, emission bandwidth −20 nm. 100 μL of 0–100 μM solution of test compound in Tyrode’s solution containing 2 mM CaCl2 was injected in each well (speed 100 μL/s) at the 90 s time point. […] The 0.1 v/v% DMSO and 2 mM CaCl2 Tyrode’s solution was used as a control.
The dose–response curves were calculated using the software package GraphPad Prism version 8.3.1. (GraphPad Software, Inc.). All data are presented as mean ± SD in three independent experiments. Y = bottom + (top – bottom)/(1 + 10^((LogEC50 – X) × HillSlope)) was used, where HillSlope describes the steepness of the curve, and top and bottom are plateaus in the units of the Y-axis.

Structure (SMILES)	Pe [1]	Pe class (low/medium/high; poor) [1]	RyR2 effect class (RyR2)	EC50 (RyR2)	effect on [Ca2+]ER / R-CEPIA1er fluorescence (F/F0) (RyR2)	dose response of F/F0 ([Ca2+]ER) (RyR2; concentration range 10^–11 to 10^–4 M)
COc1ccc2c(c1)CN(CCCCNCCCCC1(O)CC1)CCS2 [11a, 1-(4-((4-(7-Methoxy-2,3-dihydrobenzo[1,4-f]thiazepin-4(5H)-yl)butyl)amino)butyl)cyclopropan-1-ol]	0.8 10^–6 cm/s	poor permeability and low	++			
COc1ccc(OCCCNCCCCC2(O)CC2)cc1 [11b, 1-(4-((3-(4-Methoxyphenoxy)propyl)amino)butyl)cyclopropan-1-ol]	4.0 10^–6 cm/s	high	+++	0.0815 µM		
COc1ccc(SCCCNCCCCC2(O)CC2)cc1 [11c, 1-(4-((3-((4-Methoxyphenyl)thio)propyl)amino)butyl)cyclopropan-1-ol]	6.9 10^–6 cm/s	high	++	0.0102 µM		
COc1ccc2c(c1)CN(CCCCC1(O)CC1)CCS2 [11d, 1-(4-(7-Methoxy-2,3-dihydrobenzo[1,4-f]thiazepin-4(5H)-yl)butyl)cyclopropan-1-ol]	3.6 10^–6 cm/s	high			no significant RyR2-stabilizing effect	
COc1ccc2c(c1)CN(CCCCN(CCCCC1(O)CC1)CCCCC1(O)CC1)CCS2 [12a, 1,1′-(((4-(7-Methoxy-2,3-dihydrobenzo[1,4-f]thiazepin-4(5H)-yl)butyl)azanediyl)bis(butane-4,1-diyl))bis(cyclopropan-1-ol)]	0.6 10^–6 cm/s	poor permeability and low	+++			most pronounced effect of all of the other compounds
COc1ccc(SCCCN(CCCCC2(O)CC2)CCCCC2(O)CC2)cc1 [12c, 1,1′-(((3-((4-Methoxyphenyl)thio)propyl)azanediyl)bis(butane-4,1-diyl))bis(cyclopropan-1-ol)]	3.6 10^–6 cm/s	high	+	0.0186 µM		
COc1ccc2c(c1)CN(Cc1ccc(C(=O)O)cc1)CCS2 [ARM210, reference compound]	6.8 10^–6 cm/s	high	++		significantly increased [Ca^2+]ER	
